The results in this text go back to PMC10264579 (Frontiers in Pharmacology, 2023).

This data set can be described thus: In vitro skin permeation study in Franz diffusion cells. The data set is classed as in vitro ADME, human. Conditions: all formulations. The text has this: The steady-state flux was estimated from the slope of the linear portion of the plot of cumulative mass in the acceptor phase over time.

SMILES strings stand for the structures.

For the compound `CC(C(=O)O)c1cccc(C(=O)c2ccccc2)c1` (stereo not shown) [KET, ketoprofen], the “lag time, KET” value is “below 0”.
